Experimental data taken from PubChem BioAssay (NCI).
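The concentration for 50% growth inhibition is given as GI50. TGI is the concentration that stops growth completely.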

How the values were obtained:
Assay in all cases: inhibition of tumour cell growth, NCI panel, 384-well format
BT-549 breast = tested on: BT-549 breast
SK-MEL-5 melanoma = tested on: SK-MEL-5 melanoma
SW-620 colon = tested on: SW-620 colon
NCI-H23 lung = tested on: NCI-H23 lung
SK-MEL-28 melanoma = tested on: SK-MEL-28 melanoma
SNB-19 CNS = tested on: SNB-19 CNS
SF-539 CNS = tested on: SF-539 CNS
UACC-62 melanoma = tested on: UACC-62 melanoma
K-562 leukemia = tested on: K-562 leukemia
SR leukemia = tested on: SR leukemia
A549 NSCLC = tested on: A549 NSCLC
IGROV1 ovarian = tested on: IGROV1 ovarian
HL-60(TB) leukemia = tested on: HL-60(TB) leukemia
T-47D breast = tested on: T-47D breast
COLO 205 colon = tested on: COLO 205 colon
MALME-3M melanoma = tested on: MALME-3M melanoma
MDA-MB-435 melanoma = tested on: MDA-MB-435 melanoma
PC-3 prostate = tested on: PC-3 prostate
SF-295 CNS = tested on: SF-295 CNS
RXF 393 renal = tested on: RXF 393 renal
NCI-H522 lung = tested on: NCI-H522 lung
UO-31 renal = tested on: UO-31 renal
DU-145 prostate = tested on: DU-145 prostate
NCI-H460 NSCLC = tested on: NCI-H460 NSCLC
A498 renal = tested on: A498 renal
MOLT-4 leukemia = tested on: MOLT-4 leukemia
M14 melanoma = tested on: M14 melanoma
CCRF-CEM leukemia = tested on: CCRF-CEM leukemia
SF-268 CNS = tested on: SF-268 CNS
HCT-15 colon = tested on: HCT-15 colon
HOP-92 NSCLC = tested on: HOP-92 NSCLC
ACHN renal = tested on: ACHN renal
SK-OV-3 ovarian = tested on: SK-OV-3 ovarian
TK-10 renal = tested on: TK-10 renal
UACC-257 melanoma = tested on: UACC-257 melanoma
KM12 colon = tested on: KM12 colon
LOX IMVI melanoma = tested on: LOX IMVI melanoma
HS 578T breast = tested on: HS 578T breast
MDA-MB-468 breast = tested on: MDA-MB-468 breast
HT29 colon = tested on: HT29 colon
EKVX NSCLC = tested on: EKVX NSCLC
NCI-H226 lung = tested on: NCI-H226 lung
OVCAR-8 ovarian = tested on: OVCAR-8 ovarian
NCI/ADR-RES ovarian = tested on: NCI/ADR-RES ovarian
SNB-75 CNS = tested on: SNB-75 CNS
CAKI-1 renal = tested on: CAKI-1 renal
NCI-H322M lung = tested on: NCI-H322M lung
OVCAR-4 ovarian = tested on: OVCAR-4 ovarian
HCC-2998 colon = tested on: HCC-2998 colon
MDA-MB-231 breast = tested on: MDA-MB-231 breast
OVCAR-5 ovarian = tested on: OVCAR-5 ovarian
SN12C renal = tested on: SN12C renal
OVCAR-3 ovarian = tested on: OVCAR-3 ovarian
HOP-62 NSCLC = tested on: HOP-62 NSCLC
786-0 renal = tested on: 786-0 renal
MCF7 breast = tested on: MCF7 breast
RPMI-8226 leukemia = tested on: RPMI-8226 leukemia

Cc1cccc(N(C)C(=O)[C@@H]2[C@H](O)CCN2c2nc(C)cc(C(F)(F)F)c2C#N)c1 gave a GI50 (BT-549 breast) of 29.4 µM, a TGI (BT-549 breast) of 65.4 µM and a GI50 (SK-MEL-5 melanoma) of 20.7 µM. The TGI (SK-MEL-5 melanoma) was 37.3 µM, the GI50 (SW-620 colon) was 53.3 µM and the TGI (SW-620 colon) was > 100 µM. The GI50 (NCI-H23 lung) was 34.4 µM, the TGI (NCI-H23 lung) was > 100 µM and the GI50 (SK-MEL-28 melanoma) was 43.3 µM. The TGI (SK-MEL-28 melanoma) was > 100 µM, the GI50 (SNB-19 CNS) was 37.6 µM and the TGI (SNB-19 CNS) was > 100 µM. The GI50 (SF-539 CNS) was 37.2 µM, the TGI (SF-539 CNS) was > 100 µM and the GI50 (UACC-62 melanoma) was 38.1 µM. For the same molecule, the TGI (UACC-62 melanoma) was > 100 µM, the GI50 (K-562 leukemia) was 33.1 µM and the TGI (K-562 leukemia) was > 100 µM. For the same molecule, the GI50 (SR leukemia) was 15.9 µM, the TGI (SR leukemia) was 30 µM and the GI50 (A549 NSCLC) was 26.9 µM. For the same molecule, the TGI (A549 NSCLC) was > 100 µM, the GI50 (IGROV1 ovarian) was 28 µM and the TGI (IGROV1 ovarian) was 71.7 µM. The GI50 (HL-60(TB) leukemia) was 19.4 µM, the TGI (HL-60(TB) leukemia) was 33.8 µM and the GI50 (T-47D breast) was 37 µM. The TGI (T-47D breast) was > 100 µM, the GI50 (COLO 205 colon) was 37.9 µM and the TGI (COLO 205 colon) was > 100 µM. It also gave a GI50 (MALME-3M melanoma) of 22 µM, a TGI (MALME-3M melanoma) of 66.7 µM and a GI50 (MDA-MB-435 melanoma) of 37.5 µM. For the same molecule, the TGI (MDA-MB-435 melanoma) was > 100 µM, the GI50 (PC-3 prostate) was 24.5 µM and the TGI (PC-3 prostate) was 65.3 µM. The GI50 (SF-295 CNS) was 21.4 µM, the TGI (SF-295 CNS) was 52 µM and the GI50 (RXF 393 renal) was 21.5 µM. It also gave a TGI (RXF 393 renal) of 58.6 µM, a GI50 (NCI-H522 lung) of 28.1 µM and a TGI (NCI-H522 lung) of 70 µM. The GI50 (UO-31 renal) was 32.5 µM, the TGI (UO-31 renal) was > 100 µM and the GI50 (DU-145 prostate) was 31.3 µM. For the same molecule, the TGI (DU-145 prostate) was 90.7 µM, the GI50 (NCI-H460 NSCLC) was 30.2 µM and the TGI (NCI-H460 NSCLC) was 87 µM. For the same molecule, the GI50 (A498 renal) was 28.3 µM, the TGI (A498 renal) was 96.1 µM and the GI50 (MOLT-4 leukemia) was 14.8 µM. The TGI (MOLT-4 leukemia) was 28.2 µM, the GI50 (M14 melanoma) was 43.7 µM and the TGI (M14 melanoma) was > 100 µM. For the same molecule, the GI50 (CCRF-CEM leukemia) was 19.4 µM, the TGI (CCRF-CEM leukemia) was 36 µM and the GI50 (SF-268 CNS) was 38.9 µM. For the same molecule, the TGI (SF-268 CNS) was > 100 µM, the GI50 (HCT-15 colon) was 32 µM and the TGI (HCT-15 colon) was > 100 µM. The GI50 (HOP-92 NSCLC) was 22.9 µM, the TGI (HOP-92 NSCLC) was 61 µM and the GI50 (ACHN renal) was 31 µM. For the same molecule, the TGI (ACHN renal) was > 100 µM, the GI50 (SK-OV-3 ovarian) was 35 µM and the TGI (SK-OV-3 ovarian) was 96.4 µM. For the same molecule, the GI50 (TK-10 renal) was 51.4 µM, the TGI (TK-10 renal) was > 100 µM and the GI50 (UACC-257 melanoma) was 35.3 µM. For the same molecule, the TGI (UACC-257 melanoma) was 76.6 µM, the GI50 (KM12 colon) was 33.3 µM and the TGI (KM12 colon) was > 100 µM. It also gave a GI50 (LOX IMVI melanoma) of 30.7 µM, a TGI (LOX IMVI melanoma) of 80.8 µM and a GI50 (HS 578T breast) of 21 µM. The TGI (HS 578T breast) was 52.3 µM, the GI50 (MDA-MB-468 breast) was 20 µM and the TGI (MDA-MB-468 breast) was 38.5 µM. The GI50 (HT29 colon) was 32.7 µM, the TGI (HT29 colon) was > 100 µM and the GI50 (EKVX NSCLC) was 24.4 µM. For the same molecule, the TGI (EKVX NSCLC) was 58.1 µM, the GI50 (NCI-H226 lung) was 21 µM and the TGI (NCI-H226 lung) was 64.8 µM. The GI50 (OVCAR-8 ovarian) was 32.9 µM, the TGI (OVCAR-8 ovarian) was > 100 µM and the GI50 (NCI/ADR-RES ovarian) was 23.5 µM. The TGI (NCI/ADR-RES ovarian) was 63.8 µM, the GI50 (SNB-75 CNS) was 28.4 µM and the TGI (SNB-75 CNS) was 91.2 µM. The GI50 (CAKI-1 renal) was 36.1 µM, the TGI (CAKI-1 renal) was > 100 µM and the GI50 (NCI-H322M lung) was 36.4 µM. The TGI (NCI-H322M lung) was > 100 µM, the GI50 (OVCAR-4 ovarian) was 30.4 µM and the TGI (OVCAR-4 ovarian) was 73 µM. The GI50 (HCC-2998 colon) was 24.8 µM, the TGI (HCC-2998 colon) was 54.4 µM and the GI50 (MDA-MB-231 breast) was 47.9 µM. For the same molecule, the TGI (MDA-MB-231 breast) was > 100 µM, the GI50 (OVCAR-5 ovarian) was 35.2 µM and the TGI (OVCAR-5 ovarian) was > 100 µM. The GI50 (SN12C renal) was 30.6 µM, the TGI (SN12C renal) was > 100 µM and the GI50 (OVCAR-3 ovarian) was 20.1 µM. It also gave a TGI (OVCAR-3 ovarian) of 43.5 µM, a GI50 (HOP-62 NSCLC) of 27.2 µM and a TGI (HOP-62 NSCLC) of 91.7 µM. For the same molecule, the GI50 ([…]-0 renal) was 33.3 µM, the TGI (786-0 renal) was > 100 µM and the GI50 (MCF7 breast) was 27.9 µM. For the same molecule, the TGI (MCF7 breast) was 71.6 µM, the GI50 (RPMI-8226 leukemia) was 13.6 µM and the TGI (RPMI-8226 leukemia) was 26.7 µM.
